Test results as given in patent publication US11235059B2, “Afucosylated anti-FGFR2IIIB antibodies” (Five Prime Therapeutics, Inc., priority 2013, dated 2022).

Legend:
[1] = system: FGFR2IIIb-expressing Ba/F3 cells; assay: ADCC assay with human PBMC effectors, LDH release (Example 3); format: cell-based; details: E/T 25:1, 16 hours
Method: Ba/F3 FGFR2IIIb-expressing target cells were produced as follows. Ba/F3 cells acquired from Leibniz-Institut DSMZ-Deutsche Sammlung von Mikroorganismen and Zellkulturen GmbH (DSMZ, cat #ACC300, Braunschweig, Germany) were maintained in RPMI (Mediatech, cat #10-041-CV, Manassas, Va.), supplemented with 10% fetal bovine serum (Mediatech, cat #35-010-CV), 1 ng/mL murine IL-3 (Peprotech, cat #213-13, Rocky Hill, N.J.), 1×BME (Invitrogen, cat #1047574, Grand Island, N.Y.), and 1× Penicillin-streptomycin (Mediatech cat #30-002-C1). […]
ADCC assays were conducted using effector cells from 3 independent donors on 3 different days. […] Cytotoxicity was determined by quantifying LDH release as per the manufacturer's instructions (CytoTox Non Radioactive Cytotoxicity Assay, Promega, Madison, Wis.).
(§1) Maximal lysis was determined in the presence of 5% Triton X-100, and spontaneous release was determined in the absence of antibody. Percentage of specific lysis was calculated as follows, as a percentage of maximal lysis less spontaneous release: (experimental−spontaneous release)/(maximal−spontaneous release)×100=% specific lysis

[2] = system: Ba/F3 FGFR2IIIb-expressing target cells; assay: ADCC assay, EC50 by curve fitting (Example 5); format: cell-based; details: FIG. 9
Method: (§2) Ba/F3 FGFR2IIIb-expressing target cells were generated as described before. OCUM-2M cells were obtained from Osaka City University, Osaka, Japan. All cells were cultured using standard methods. Freshly isolated PMBC from healthy donors were obtained from AllCells, Emeryville, Calif.
(§3) ADCC assays were conducted using freshly isolated human PBMCs as effector cells at an effector to target (E:T) cell ratio of 25:1. The target cells were incubated for 16 hours in the presence of effectors and increasing concentrations of antibody. All conditions were tested in triplicate. Cytotoxicity was determined by quantifying LDH release as per the manufacturer's recommendations (Promega's CytoTox Non-Radioactive Cytotoxicity Assay). For the OCUM-2M cells, maximal lysis was determined in the presence of 5% Triton X-100, and spontaneous release was determined in the absence of antibody. Percentage of specific lysis was calculated as a percentage of maximal lysis less spontaneous release, as follows: (experimental−spontaneous release)/(maximal−spontaneous release)×100=% specific lysis. GraphPad software curve-fitting analysis was used to obtain EC50 values.

[3] = system: OCUM-2M human gastric cancer xenograft with FGFR2 amplification; assay: OCUM-2M gastric cancer xenograft model; format: in vivo, CB17 SCID mice; details: for tumor response: 10 mg/kg intraperitoneal twice per week
Text: Six week old female CB17 SCID mice were purchased from Charles River Laboratories (Wilmington, Mass.) and were acclimated for 1 week before the start of the study. Human gastric carcinoma cell line OCUM-2M or breast carcinoma cell line MFM-223 were used as the tumor models. OCUM-2M was purchased from Public University Corporation Osaka City University (OCU, Osaka, Japan), and MFM-223 was purchased from Culture Collections, Public Health England (98050130, HPA Culture Collections, Salisbury, UK). The cells were cultured for up to three passages in complete growth medium to expand for implantation. OCUM-2M and MFM-223 cells were cultured in Dulbecco's […] (DMEM) and Minimum Essential Medium (MEM), respectively. All medium was supplemented with 10% heat-inactivated Fetal Bovine Serum (FBS), 2 mM L-Glutamine, and Penicillin-Streptomycin solution. Cells were grown at 37° C. in a humidified atmosphere with 5% CO2.
When the cultured cells reached 85-90% confluence, cells were harvested and resuspended in cold Ca^2+ and Mg^2+ free phosphate buffered saline (PBS) containing 50% Matrigel (BD BioSciences, San Jose, Calif.). OCUM-2M cells were implanted subcutaneously over the right flank of the mice at 5×10^5 cells/100 μl/mouse. MFM-223 cells were implanted subcutaneously over the right flank of the mice at 5×10^5 cells/100 μl/mouse, and 0.72 mg 90-day release […] estradiol pellets (Innovative Research of America, Sarasota, Fla.) were inoculated subcutaneously into the right flank. Mice were monitored twice weekly following cell implantation for tumor growth. Tumor size was measured according to the formula: Tumor size (mm^3)=([…])/2. When MFM-223 tumors reached 80 mm^3 mice were sorted and randomized (n=10), and treatment was initiated. For OCUM-2M tumors, single therapy with anti-FGFR2b was initiated once tumors reached an average size of 100 mm^3, and combination therapy was initiated once tumors reached an average size of 250 mm^3.
(§4) Chemotherapeutic agents were administered via intraperitoneal injection twice per week at 12 mg/kg for paclitaxel, 2.3 mg/kg for fluorouracil (5-FU), and 33 mg/kg for cisplatin. Upon initiation of therapy, tumor sizes were measured in each mouse twice weekly. The length and width of each tumor was measured using calipers and the tumor size calculated according to the formula above. Mice were euthanized when the subcutaneous tumor volumes exceeded 2000 mm^3 or when the tumors became excessively necrotic.
Comparisons of tumor volume […] determined to be statistically significant if P<0.05. P-values were calculated using unpaired, two-tailed t-test analyses of the calculated tumor volumes on the final day upon which tumors were measured.

[4] = system: MFM-223 human breast cancer xenograft; assay: MFM-223 breast cancer xenograft model; format: in vivo, CB17 SCID mice; details: 5 mg/kg
Text: Six week old female CB17 SCID mice were purchased from Charles River Laboratories (Wilmington, Mass.) and were acclimated for 1 week before the start of the study. Human gastric carcinoma cell line OCUM-2M or breast carcinoma cell line MFM-223 were used as the tumor models. OCUM-2M was purchased from Public University Corporation Osaka City University (OCU, Osaka, Japan), and MFM-223 was purchased from Culture Collections, Public Health England (98050130, HPA Culture Collections, Salisbury, UK). The cells were cultured for up to three passages in complete growth medium to expand for implantation. […]
When the cultured cells reached 85-90% confluence, cells were harvested and resuspended in cold Ca^2+ and Mg^2+ free phosphate buffered saline (PBS) containing 50% Matrigel (BD BioSciences, San Jose, Calif.). […] Mice were monitored twice weekly following cell implantation for tumor growth. Tumor size was measured according to the formula: Tumor size (mm^3)=(width (mm)×length (mm)^2)/2. […]
as §4, with “Mice were euthanized when the subcutaneous tumor volumes exceeded 2000 mm^3 or when the tumors became excessively necrotic.” left out

OCUM-2M cells [5] = assay: ADCC assay, EC50 by curve fitting (Example 5); format: cell-based, human; details: E:T 25:1, 16 hours, percent specific lysis
Method: as §2, §3

OCUM-2M cells [6] = assay: ADCC assay with human PBMC effectors, LDH release (Example 3); format: cell-based; details: data not shown
Method: (§5) MFM-223 cells were obtained from the Health Protection Agency, UK; OCUM-2M cells were obtained from Osaka City University, Osaka, Japan; and KATO III cells were obtained from ATCC, Rockville, Md. All cells were cultured using standard methods. Freshly isolated PMBC from healthy donors were obtained from AllCells, Emeryville, Calif.
(§6) ADCC assays were conducted using effector cells from 3 independent donors on 3 different days. ADCC assay testing was performed using freshly isolated human PBMCs as effector cells at an effector to target (E/T) cell ratio of 25:1. The target cells were incubated for 16 hours in the presence of effectors and increasing concentrations of antibody. The ADCC assay was validated using 2 positive control antibodies, HERCEPTIN® on SKOV-3 target cells and RITUXIN® on Raji target cells. A fully human IgG1 negative control antibody (Eureka Therapeutics, Catalog ET901, Emeryville, Calif.) was used for non-specific cell cytotoxicity. Cytotoxicity was determined by quantifying LDH release as per the manufacturer's instructions (CytoTox Non Radioactive Cytotoxicity Assay, Promega, Madison, Wis.).
as §1

KATO III cells = assay: as above; format: cell-based; details: E/T 25:1, 16 hours; data not shown
Method: as §5, §6, §1

MFM 223 cells = assay: as above; format: cell-based; details: data not shown
Method: as §5, §6, §1

EC50 (ADCC) (OCUM-2M cells [5]) [µg/mL] | Substance | specific lysis compared with αFGFR2bF [1] | ADCC potency compared with αFGFR2bF [2] | final tumor size compared with αFGFR2bF ([3]; 3 mg/kg) | tumor growth compared with αFGFR2bF ([3]; 3 mg/kg) | tumor regression and durability compared with αFGFR2bF ([3]; 3 mg/kg) | durability of response compared with αFGFR2bF ([3]; 10 mg/kg) | final tumor size compared with αFGFR2bF ([3]; 10 mg/kg) | tumor response [3] | final tumor size ([3]; 1 to 5 mg/kg, higher doses more potent) | tumor growth suppression ([3]; 2, 1.5, and 1 mg/kg) | tumor growth suppression ([3]; 3 and 5 mg/kg) | tumor growth ([3]; all doses: 1, 1.5, 2, 3, or 5 mg/kg, start at about 100 mm^3) | final tumor size compared to albumin control [4] | tumor growth compared to albumin control ([4]; start at about 80 mm^3) | ADCC activity compared with αFGFR2bF (OCUM-2M cells [6]; E/T 25:1, 16 hours) | maximal specific lysis compared with αFGFR2bF (OCUM-2M cells [6]) | ADCC activity compared with αFGFR2bF (KATO III cells) | ADCC activity compared with αFGFR2bF (MFM 223 cells; E/T 25:1, 16 hours) | maximal specific lysis compared with αFGFR2bF (MFM 223 cells)
0.005 | αFGFR2bA: afucosylated humanized anti-FGFR2IIIb monoclonal antibody produced in Potelligent CHOK1SV cells; heavy chain SEQ ID NO: 2, light chain SEQ ID NO: 3 | greater specific lysis | higher potency | notably reduced final OCUM-2M tumor size | reduced tumor growth | greater tumor regression and durable response | more durable response | significantly reduced final OCUM-2M tumor size | immediate tumor regression | reduced final OCUM-2M tumor size | reduced growth suppression | greatest suppression and durable response | inhibited tumor growth | significantly reduced final MFM-223 tumor size | dramatically reduced growth of MFM-223 tumors | greater ADCC activity at lower concentrations | comparable | greater ADCC activity at lower concentrations | greater ADCC activity at lower concentrations | comparable
0.03 | αFGFR2bF: fucosylated anti-FGFR2IIIb humanized antibody with the same amino acid sequences as αFGFR2bA, produced in CHOK1SV cells [reference compound] | – | – | – | – | – | – | – | immediate tumor regression | – | – | – | – | – | – | – | – | – | – | –
